{
  "source": "EPA's ToxValDB 9.5 (doi:10.2903/j.efsa.2010.1445)",
  "key": {"Oryctolagus sp.": {"system": "Oryctolagus sp.", "conditions": "developmental; development"}, "Coturnix coturnix": {"system": "Coturnix coturnix", "conditions": "for LD50: acute, oral, mortality"}, "Oncorhynchus mykiss": {"system": "Oncorhynchus mykiss", "conditions": "acute; duration: 96 hours; mortality"}, "Pimephales promelas": {"system": "Pimephales promelas", "conditions": "chronic/long-term; duration: 33 days"}, "Tagia sp.": {"system": "Tagia sp.", "conditions": "acute; mortality"}, "Rattus norvegicus": {"system": "Rattus norvegicus", "conditions": "acute; oral; mortality"}, "Anatidae": {"system": "Anatidae", "conditions": "for LD50: oral, mortality"}, "Apis mellifera": {"system": "Apis mellifera", "conditions": "acute; duration: 48 hours; dermal; mortality"}, "Daphnia magna": {"system": "Daphnia magna", "conditions": "chronic/long-term; duration: 21 days"}, "Lepomis macrochirus": {"system": "Lepomis macrochirus", "conditions": "acute; duration: 96 hours; mortality"}, "Typhlodromus pyri": {"system": "Typhlodromus pyri", "conditions": "not reported; mortality"}, "[1]": {"conditions": "chronic/long-term; development"}},
  "data": [
    {"smiles": "N#CCNC(=O)c1cnccc1C(F)(F)F", "note": "[Flonicamid]", "values": [
      {"measurement": "LC50", "setting": "Bibionidae; acute, duration: 48 hours, mortality", "result": "> 200", "unit": "µg/mL"},
      {"measurement": "NOEC", "setting": "Bibionidae; chronic/long-term, duration: 28 days", "result": 25, "unit": "mg/L"},
      {"measurement": "NOAEL", "setting": "Oryctolagus sp.", "result": 2.5, "unit": "mg/kg-day"},
      {"measurement": "LD50", "setting": "Coturnix coturnix; M/F", "result": "> 2000", "unit": "mg/kg"},
      {"measurement": "LD50", "setting": "Coturnix coturnix; diet", "result": "> 411", "unit": "mg/kg-day"},
      {"measurement": "NOEL", "setting": "Coturnix coturnix; reproduction developmental", "result": 90, "unit": "mg/kg-day"},
      {"measurement": "LC50", "setting": "Oncorhynchus mykiss", "result": "> 100", "unit": "µg/mL"},
      {"measurement": "NOEC", "setting": "Pimephales promelas", "result": 10, "unit": "mg/L"},
      {"measurement": "LC50", "setting": "Tagia sp.", "result": "> 1000", "unit": "mg/kg"},
      {"measurement": "LD50", "setting": "Rattus norvegicus", "result": 884, "unit": "mg/kg"},
      {"measurement": "LD50", "setting": "Anatidae; acute, unspecified, F", "result": 1590, "unit": "mg/kg"},
      {"measurement": "LD50", "setting": "Anatidae; acute, unspecified, M", "result": 2620, "unit": "mg/kg"},
      {"measurement": "NOEL", "setting": "Anatidae; reproductive", "result": 59, "unit": "mg/kg-day"},
      {"measurement": "LD50", "setting": "Anatidae; short-term, feed", "result": "> 302", "unit": "mg/kg-day"},
      {"measurement": "LD50", "setting": "Apis mellifera", "result": "> 51.1", "unit": "µg/piece"},
      {"measurement": "NOEC", "setting": "Daphnia magna", "result": 3.1, "unit": "mg/L"},
      {"measurement": "LC50", "setting": "Lepomis macrochirus", "result": "> 100", "unit": "µg/mL"},
      {"measurement": "LEL", "setting": "Typhlodromus pyri", "result": 80, "unit": "g/ha"},
      {"measurement": "NOEL", "setting": "[1]", "result": 25, "unit": "mg/kg-day"}
    ]}
  ]
}
